Experiments:
[1] = system: AML subject derived cell lines; experiment: Proliferation of AML subject-derived cells (Celltiter Glo); format: cell-based, human; settings: 72 hours, five AML subject derived cell lines (FIG. 4e)
[2] = system: MOLT-4 human ALL tumor cells; experiment: MOLT-4 human acute lymphoblastic leukemia lethality model; format: in vivo; settings: NOD/SCID mice, 10 mg/kg qd
Description: Doxorubicin was tested at the highest dose tolerated by NOD/SCID mice.
Systemic Leukemia Lethality Model: Male NOD-SCID mice were inoculated with MOLT-4 human ALL tumor cells (1×10^7 cells in 200 μL PBS) by intravenous (IV) injection. […] The mice were dosed and observed until moribund, at which time they were euthanized. At 2- and 4-weeks post-inoculation, whole blood was obtained from 5 mice per group by retro-orbital bleeding, stained with an antibody against human CD45, and the number of CD45-positive cells was determined by FACs. Data in FIG. 5b represents % of human CD45+ from blood of each mouse; where * indicates p<0.05, one way ANOVA, with multiple comparisons vs vehicle.

MOLM-13 AML cells = experiment: MOLM-13 human acute myeloid leukemia xenograft model; format: in vivo; settings: nude mice, flank tumor; vehicle 7 days (FIG. 6)
Description: Human Xenograft Model: HT1080 or MOLM-13 tumor cells in log phase growth (5-10×10^6 cells/mouse, depending on cell lines) were implanted subcutaneously in male athymic nude mice. When the average tumor size reached the indicated size, mice were randomly divided into groups (10-15 mice/group) and administered vehicle or test compounds orally, once a day or twice per day as indicated. Tumor size was measured using calipers at periodic intervals during the study and tumor volume was calculated as L×W^2/2, in which L represents the longest and W is the shortest diameter of the tumors. At the end of the experiments, tumors were excised and homogenized on ice in Tris-HCl buffer containing a cocktail of proteinase inhibitors using a Powergen homogenizer fitted with Omni-Tip disposable/reusable probes (both from Fisher Scientific). Intratumoral levels of growth factors and proteins were measured using commercially available ELISA kits (R&D Systems). Protein concentrations of the homogenates were measured (Bio-Rad protein assay kit) and intratumoral growth factor levels normalized to the total protein concentration.

[3] = Blood-brain barrier penetration, whole-body autoradiography; format: in vivo; settings: evaluation, rats
DHODH [4] = experiment: Serum DHO in NF2 clinical study subjects; format: in vivo, human; settings: three additional NF2 subjects (FIG. 3b)
DHODH [5] = biological target: T1, DHODH (Homo sapiens, UniProt Q02127); experiment: Pull-down with Cpd 1-linked Sepharose beads, Western blot; format: binding; set-up: 1 mL of cell lysate solution (2 mg/mL protein) was added to each reaction tube; endogenous in cells
T1 sequence (Q02127 whole entry): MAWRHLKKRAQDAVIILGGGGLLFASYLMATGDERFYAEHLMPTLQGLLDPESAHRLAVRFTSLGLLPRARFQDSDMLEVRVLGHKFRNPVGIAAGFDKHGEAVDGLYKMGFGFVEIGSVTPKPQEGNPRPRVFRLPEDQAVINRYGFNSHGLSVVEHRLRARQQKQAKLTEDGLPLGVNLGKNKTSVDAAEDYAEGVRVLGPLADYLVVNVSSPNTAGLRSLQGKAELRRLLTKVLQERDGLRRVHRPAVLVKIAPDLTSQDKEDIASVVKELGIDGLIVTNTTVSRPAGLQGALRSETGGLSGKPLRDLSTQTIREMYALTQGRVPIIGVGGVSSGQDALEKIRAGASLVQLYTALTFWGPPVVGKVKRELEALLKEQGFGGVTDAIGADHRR
From the text: Western Blot Analysis. […] Subsequently, the conditioned medium was harvested by mixing with equal volume of 2×SDS-PAGE sample buffer (Bio-Rad). […] Proteins in the samples were resolved on a Tris-glycine Criterion gel (Bio-Rad) and transferred onto a 0.45 μm nitrocellulose membrane. […] Antibody (C1) specific for VEGFA was purchased from Santa Cruz Biotechnologies, CA (1:200 dilution); Antibody specific for human β-actin was purchased from Abcam (1:10000 dilution); Antibody specific for V5-tag was purchased from Invitrogen (1:5000 dilution). […] Immunodetection was done using the corresponding secondary antibodies conjugated with infrared dyes or horseradish peroxide. The expression levels of proteins were detected with Odyssey (LI-COR) or using enhanced chemiluminescence (Pierce, Rockford, Ill.).
The wet Sepharose 6B was diluted with pH 11 phosphate/NaOH buffer (5 mL). […] The reaction mixture was stirred further 24 hours at 40° C.
Cells in log phase growth were washed with cold PBS once and then collected by trypsin digestion. […] Proteins in the eluted samples were identified via LC-MS/MS or western blot analysis.

DHODH [6] = biological target: T1, DHODH; experiment: Purified rhDHODH enzymatic assay; format: biochemical; set-up: full length purified recombinant human DHODH or mitochondria isolated from K562 cells were used as enzyme sources; settings: compared with activity in hematologic cancer cells and other DHODH inhibitors
From the text: Low pyrimidine pool levels may affect certain translation factor(s) or mechanisms required for the non-canonical protein synthesis of stress-regulated mRNAs. […] EIF1A is an isoform that controls translation start codon recognition. Low uridine levels may also affect the mRNA substrate directly: depletion of pyrimidine nucleotides in cancer cells can cause a starvation-like stress response leading to changes in methylation and pseudouridylation of mRNA modifications.
In Vitro DHODH Activity Assays. The chromogen reduction assay was carried out as previously reported. DHODH activity was determined in the presence of compounds or vehicle control using the standard colorimetric DHODH continuous assay in which the oxidation of dihydroorotic acid (DHO) and subsequent reduction of ubiquinone is coupled with and measured by monitoring the reduction of 2,6-dichlorophenolindophenol (DCPIP). Briefly, full length purified recombinant human DHODH or mitochondria isolated from K562 cells were used as enzyme sources to test compound inhibition of DHODH activity. […] The DCIP reduction was monitored by measuring the absorbance at OD610 nm on a BioTek Power Wave XS2 and the enzyme reaction velocity was derived for each reaction using the GENS software.

COc1ccc([C@H]2c3[nH]c4ccc(Cl)cc4c3CCN2C(=O)Oc2ccc(Cl)cc2)cc1 [Cpd 1, 4-chlorophenyl (S)-6-chloro-1-(4-methoxyphenyl)-1,3,4,9-tetrahydro-2H-pyrido[3,4-b]indole-2-carboxylate]
inhibition of proliferation [1]: inhibition of proliferation in all five AML subject derived cell lines tested
number of circulating MOLT-4 cells (CD45+) ([2]; compared to doxorubicin (FIG. 5b)): significantly reduced
median survival time (MST) ([2]; vehicle 46 days, p<0.05): 136 days
median time to reach a tumor volume of 1000 mm^3 (MOLM-13 AML cells): 23 days
blood-brain barrier penetration [3]: penetrates the blood-brain barrier
serum DHO (DHODH [4]): increased serum DHO
competitive elution of DHODH from Cpd 1 beads by free compound (DHODH [5]; Competing Off (FIG. 2b)): selectively eluted
binding of DHODH to Cpd 1-linked beads after preincubation with free compound (DHODH [5]; Competing On, Western blot (FIG. 2a)): inhibited
inhibition of DHODH functional activity in purified rhDHODH enzymatic assays (DHODH [6]): less inhibition of DHODH functional activity

— patent publication US11458126B2, “DHODH inhibitor for use in treating hematologic cancers” (PTC THERAPEUTICS, INC., priority 2017, dated 2022)
